Experimental findings from ChEMBL document CHEMBL1132119, “1-Arylnaphthalene lignan: a novel scaffold for type 5 phosphodiesterase inhibitor” (J Med Chem, 1999) are described below.

Usually IC50 stands for the midpoint of a concentration-inhibition curve. A high value points to weaker potency in that assay. In general, EC50 refers to the concentration needed to bring the measured effect to its halfway point. A higher EC50 goes with lower potency in that assay.

For assay [1], the target named is cGMP-specific 3',5'-cyclic phosphodiesterase (Canis lupus familiaris, UniProt O77746). Kind of assay: Inhibitory activity against phosphodiesterase 5 (PDE V), isolated from lung.
Assay [2] addresses Phosphodiesterase 3 (Canis familiaris). Kind of assay: Inhibitory activity against phosphodiesterase 3 (PDE 3) isolated from cardiac ventricle.
The target of assay [3] is Phosphodiesterase 1 (Canis familiaris). Kind of assay: Inhibitory activity against phosphodiesterase 1 (PDE I), isolated from cardiac ventricle.
The species entered for another assay is Rattus norvegicus. Kind of assay: Relaxant effect on rat aortic rings. In kind it is functional, organism-based. To be noted: Aorta.
Assay [4] has as its target Phosphodiesterase 4 (Canis familiaris). Description: Inhibition of canine lung Phosphodiesterase 4.
Assay [5] addresses Phosphodiesterase 2 (Canis familiaris). Description: Inhibition of canine adrenal gland Phosphodiesterase 2.

As for `COC(=O)c1c(C(=O)N2CCC(=O)CC2)cc2cc(OC)c(OC)cc2c1-c1cc(OC)c(OC)c(OC)c1`, the 50% inhibitory concentration (IC50) was 0.5 µM in assay [1], above 100 µM in assay [2] and 88 µM in assay [3].

Take `COC(=O)c1c(C(=O)N2CCN(CCO)CC2)cc2ccc(C)cc2c1-c1cc(Br)c(OC)c(OC)c1`: the IC50 in assay [1] was 0.051 µM; in assay [2], above 100 µM; in assay [3], 3.5 µM.

With `COc1cc2cc3c(c(-c4cc(OC)c(OC)c(OC)c4)c2cc1OC)COC3=O`, the IC50 stood at 0.068 µM in assay [1], 0.84 µM in assay [2] and 0.43 µM in assay [3].

Consider `COC(=O)c1c(C(=O)N2CCN(CCO)CC2)cc2cc(OC)c(OC)c(OC)c2c1-c1cc(Br)c(OC)c(OC)c1`, for which the half-maximal inhibitory concentration (IC50) in assay [1], in assay [2] and in assay [3] was above 100 µM throughout.

As for `CCOC(=O)C1CCN(C(=O)c2cc3cc(OC)c(OC)cc3c(-c3cc(OC)c(OC)c(OC)c3)c2C(=O)OC)CC1`, the IC50 in assay [1] was 2 µM; in assay [2], 60 µM; in assay [3], 24 µM.

Take `COC(=O)c1c(C(=O)N2CCN(CCO)CC2)cc2cc(OC)c(OC)cc2c1-c1cc(OC)c(OC)c(OC)c1`: a half-maximal response in the assay filed under Rattus norvegicus (EC50) required 2 µM. Besides, the half-maximal inhibitory concentration (IC50) in assay [4] was above 100 µM; in assay [5], above 100 µM; in assay [1], 0.094 µM; in assay [2], above 100 µM; in assay [3], 41 µM.

Turning to `CCOc1cc2cc(C(=O)N3CCN(CCO)CC3)c(C(=O)OC)c(-c3cc(Br)c(OC)c(OC)c3)c2cc1OC`, in the assay filed under Rattus norvegicus, the 50% effective concentration (EC50) turned out to be 0.3 µM. The same compound gave an IC50 in assay [1] of 0.017 µM.

As to `COC(=O)c1c(C(=O)N2CCN(C)CC2)cc2cc(OC)c(OC)cc2c1-c1cc(OC)c(OC)c(OC)c1`, the results for the IC50 in assay [1], in assay [2] and in assay [3] were 1.4 µM, above 100 µM and 69 µM, respectively.

In the case of `COC(=O)c1c(C(=O)N2CCN(CCO)CC2)cc2ccccc2c1-c1cc(Br)c(OC)c(OC)c1`, in the assay filed under Rattus norvegicus, the EC50 came to 0.79 µM. The IC50 is above 100 µM in assay [4]; above 100 µM in assay [5]; 0.025 µM in assay [1]; above 100 µM in assay [2]; 3.4 µM in assay [3].

On to `COC(=O)c1c(C(=O)N2CCC(O)CC2)cc2cc(OC)c(OC)cc2c1-c1cc(OC)c(OC)c(OC)c1`, for which the values for the half-maximal inhibitory concentration (IC50) in assay [1], in assay [2] and in assay [3] were 0.17 µM, above 100 µM and 74 µM, respectively.

`COC(=O)c1c(C(=O)N2CCN(CCO)CC2)cc2c(Cl)cccc2c1-c1cc(Br)c(OC)c(OC)c1` returned an EC50 in the assay listed under Rattus norvegicus of 0.1 µM. For the same compound, half-maximal inhibition in assay [1] (IC50) was put at 0.0062 µM.

`COC(=O)c1c(C(=O)N2CCN(CCO)CC2)cc2cc(OC)c(OC)cc2c1-c1ccnc(Br)c1` gave a half-maximal inhibitory concentration (IC50) in assay [1] above 100 µM.

Regarding `COC(=O)c1c(C(=O)N2CCN(CCO)CC2)cc2cc(OC)ccc2c1-c1cc(Br)c(OC)c(OC)c1`, in the assay listed under Rattus norvegicus, the midpoint of the response, the EC50, lay at 0.56 µM. In assay [1], this compound yielded a concentration for half-maximal inhibition (IC50) of 0.012 µM.

Take `COC(=O)c1c(C(N)=O)cc2cc(OC)c(OC)cc2c1-c1cc(OC)c(OC)c(OC)c1`: the IC50 in assay [1] is above 100 µM; in assay [2], 0.32 µM; in assay [3] it was 0.82 µM.

For `COC(=O)c1c(C(=O)N2CCN(CCO)CC2)cc2cc(OC)c(OC)cc2c1-c1ccc2c(c1)OCO2`, the concentration for half-maximal inhibition (IC50) in assay [1] is 33 µM; in assay [2], above 100 µM; in assay [3] it was 55 µM.

`COC(=O)c1c(C(=O)N(C)C)cc2cc(OC)c(OC)cc2c1-c1cc(OC)c(OC)c(OC)c1`: the results for the IC50 in assay [1], in assay [2] and in assay [3] were 0.23 µM, 16 µM and 35 µM, respectively.

In the case of `COc1cc2cc(N)c(CO)c(-c3cc(OC)c(OC)c(OC)c3)c2cc1OC`, the IC50 turned out to be 13 µM in assay [1], 3.5 µM in assay [2] and 2.1 µM in assay [3].

`O=C(O)C1CCN(c2nc(NCc3ccc4c(c3)OCO4)c3cc(Cl)ccc3n2)CC1` had a concentration for a half-maximal effect (EC50) in the assay listed under Rattus norvegicus of 0.2 µM. This compound also returned a concentration for half-maximal inhibition (IC50) in assay [1] of 0.0016 µM.

As for `COC(=O)c1cc2cc(OC)c(OC)cc2c(-c2cc(OC)c(OC)c(OC)c2)c1C(=O)OC`, the IC50 in assay [1] was 2.1 µM; in assay [2], above 100 µM; in assay [3], above 100 µM.

Regarding `COC(=O)c1c(CN2CCN(CCO)CC2)cc2cc(OC)c(OC)cc2c1-c1cc(OC)c(OC)c(OC)c1`, the IC50 in assay [1] was 2.4 µM; in assay [2] it was above 100 µM; in assay [3] it was 26 µM.

As for `COC(=O)c1c(C(=O)N2CCOCC2)cc2cc(OC)c(OC)cc2c1-c1cc(OC)c(OC)c(OC)c1`, half-maximal inhibition in assay [1] (IC50) was put at 0.39 µM.

`COC(=O)c1c(C(=O)N2CCN(CCO)CC2)cc2cc(OC)c(OC)cc2c1-c1cc(N)c(OC)c(OC)c1`: the results for the half-maximal inhibitory concentration (IC50) in assay [1], in assay [2] and in assay [3] were 30 µM, above 100 µM and above 100 µM, respectively.

As to `COC(=O)c1c(C(=O)N2CCN(CCO)CC2)cc2cc(OC)c(OC)cc2c1-c1cc(Cl)c(OC)c(OC)c1`, the EC50 in the assay listed under Rattus norvegicus was determined as 1.3 µM. The IC50 is above 100 µM in assay [4]; above 100 µM in assay [5]; 0.049 µM in assay [1]; above 100 µM in assay [2]; 26 µM in assay [3].

For `COC(=O)c1c(C(=O)N2CCN(CCO)CC2)cc2ccc(Cl)cc2c1-c1cc(Br)c(OC)c(OC)c1`, the 50% inhibitory concentration (IC50) in assay [1] was 0.021 µM; in assay [2], above 100 µM; in assay [3] it was 1.1 µM.

For the compound `CNC(=O)c1cc2cc(OC)c(OC)cc2c(-c2cc(OC)c(OC)c(OC)c2)c1C(=O)OC`, the values for the concentration for half-maximal inhibition (IC50) in assay [1], in assay [2] and in assay [3] were above 100 µM, 2.9 µM and above 100 µM, respectively.

Turning to `COc1cc2cc3c(c(-c4cc(OC)c(OC)c(OC)c4)c2cc1OC)C(=O)N(C)C3=O`, the 50% inhibitory concentration (IC50) in assay [1], in assay [2] and in assay [3] was above 100 µM in each case.

For `COC(=O)c1c(C(=O)N2CCN(CCO)CC2)cc2cc(OC)c(OC)cc2c1/C=C/c1cc(OC)c(OC)c(OC)c1`, the IC50 in assay [1] was above 100 µM.

For the compound `COC(=O)c1c(C(=O)N2CCN(CCO)CC2)cc2cc(OC)c(OC)cc2c1-c1cccs1`, the IC50 in assay [1] is above 100 µM; in assay [2], above 100 µM; in assay [3] it was 77 µM.

Take `COc1cc2cc(C(=O)N3CCN(CCO)CC3)c(CO)c(-c3cc(OC)c(OC)c(OC)c3)c2cc1OC`: the IC50 in assay [1], in assay [2] and in assay [3] was above 100 µM throughout.

On to `COC(=O)c1c(C(=O)N2CCN(CCO)CC2)cc2cc(OC)c(OC)cc2c1-c1cc(OC)c(OC)cc1C`, for which the concentration for half-maximal inhibition (IC50) in assay [1] was determined as 52 µM.

Compound `COC(=O)c1c(C(=O)N2CCCC2)cc2cc(OC)c(OC)cc2c1-c1cc(OC)c(OC)c(OC)c1` showed an IC50 in assay [1] of 0.78 µM.

In the case of `COC(=O)c1c(C(=O)N2CCC(CO)CC2)cc2cc(OC)c(OC)cc2c1-c1cc(OC)c(OC)c(OC)c1`, the IC50 was 0.32 µM in assay [1], above 100 µM in assay [2] and 45 µM in assay [3].

In turn, `COC(=O)c1c(C(=O)N2CCCCC2)cc2cc(OC)c(OC)cc2c1-c1cc(OC)c(OC)c(OC)c1` displayed a concentration for half-maximal inhibition (IC50) in assay [1] of 2.1 µM.

In the assay filed under Rattus norvegicus, `COC(=O)c1c(C(=O)N2CCN(CCO)CC2)cc2cc(OC)c(OC)cc2c1-c1cc(Br)c(OC)c(OC)c1` registered a half-maximal effective concentration (EC50) of 0.46 µM. Also, the 50% inhibitory concentration (IC50) in assay [4] is above 100 µM; in assay [5] it was above 100 µM; in assay [1] it was 0.024 µM; in assay [2], above 100 µM; in assay [3], 11 µM.

As to `COc1cc2cc(CO)c(CO)c(-c3cc(OC)c(OC)c(OC)c3)c2cc1OC`, the figures for the half-inhibitory concentration (IC50) in assay [1], in assay [2] and in assay [3] were 13 µM, 0.88 µM and 18 µM, respectively.

For the compound `COC(=O)c1c(C(=O)N2CCN(CCO)CC2)cc2cc(OC)c(OC)cc2c1-c1cc(Cl)cc(Cl)c1`, the IC50 in assay [1] was 54 µM; in assay [2], above 100 µM; in assay [3] it was above 100 µM.

Take `COC(=O)c1c(C(=O)N2CCN(CCO)CC2)cc2cc(OC)c(OC)cc2c1-c1cccc([N+](=O)[O-])c1`: the IC50 in assay [1], in assay [2] and in assay [3] was above 100 µM each time.

`COC(=O)c1c(C(=O)N2CCN(CCO)CC2)cc2cc(OC)c(OC)cc2c1-c1ccc(Cl)c(Cl)c1`: the IC50 in assay [1] is 53 µM; in assay [2], above 100 µM; in assay [3] it was 82 µM.
